# Assay results as given in PubChem BioAssay AID256 (DTP/NCI, 2004).
# Values joined by “and” are separate entries in the source; they are usually repeats but may differ in a detail not shown here. Identical values can stand only once. Inconclusive results and toxic doses are left out.
# System: CD2F1 mice, L1210 leukemia ip, survival T/C
# Assay: NCI In Vivo Anticancer Drug Screen. Data for tumor model L1210 Leukemia (intraperitoneal) in CD2F1 (CDF1) mice
# Details: higher = longer survival
# How it was run: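 Transplantable tumor in mice; compound-treated vs vehicle-treated groups. Read-out = treated/control ratio of the measured endpoint.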
# [1] = endpoint: mean survival time, dose: 100.0 mg/kg/injection, schedule: Q01DX009 (ip), vehicle: saline
# [2] = endpoint: mean survival time, dose: 200.0 mg/kg/injection, schedule: Q01DX009 (ip), vehicle: saline
# [3] = endpoint: mean survival time, dose: 400.0 mg/kg/injection, schedule: Q01DX009 (ip), vehicle: saline
# [4] = endpoint: mean survival time, dose: 100.0 mg/kg/injection, schedule: Q04DX003 (ip), vehicle: saline with Tween-80
# [5] = endpoint: mean survival time, dose: 200.0 mg/kg/injection, schedule: Q04DX003 (ip), vehicle: saline with Tween-80
# [6] = endpoint: mean survival time, dose: 400.0 mg/kg/injection, schedule: Q04DX003 (ip), vehicle: saline with Tween-80
# [7] = endpoint: mean survival time, dose: 100.0 mg/kg/injection, schedule: Q04DX003 (ip), vehicle: Klucel (hydroxypropylcellulose) (HPC)
# [8] = endpoint: mean survival time, dose: 200.0 mg/kg/injection, schedule: Q04DX003 (ip), vehicle: Klucel (hydroxypropylcellulose) (HPC)
compound,measurement,setting,value
C[Si](OCc1ccc(-c2ccccc2)cc1)c1ccccc1,T/C,[1],99 % of control
same,T/C,"endpoint: mean survival time, dose: 100.0 mg/kg/injection, schedule: Q04DX003 (ip), vehicle: saline",96 % of control
same,T/C,[2],100 % of control
same,T/C,"endpoint: mean survival time, dose: 200.0 mg/kg/injection, schedule: Q04DX003 (ip), vehicle: saline",93 % of control
same,T/C,[3],94 % of control
same,T/C,"endpoint: mean survival time, dose: 400.0 mg/kg/injection, schedule: Q04DX003 (ip), vehicle: saline",98 % of control
NNC(=O)C(N)Cc1cnc[nH]1 (stereo not given),T/C,"endpoint: mean survival time, dose: 50.0 mg/kg/injection, schedule: Q04DX002 (ip), vehicle: saline with Tween-80",100 % of control
same,T/C,"endpoint: mean survival time, dose: 100.0 mg/kg/injection, schedule: Q04DX002 (ip), vehicle: saline with Tween-80",100 % of control
same,T/C,"endpoint: mean survival time, dose: 200.0 mg/kg/injection, schedule: Q04DX002 (ip), vehicle: saline with Tween-80",122 % of control
same,T/C,"endpoint: mean survival time, dose: 400.0 mg/kg/injection, schedule: Q04DX002 (ip), vehicle: saline with Tween-80",118 % of control
O=C(/C=C/c1ccccc1)SCc1ccccc1,T/C,[4],96 % of control
same,T/C,[5],98 % of control
same,T/C,[6],94 % of control
O=C(CCl)Nc1ccccc1Cl,T/C,[7],97 % of control
same,T/C,[8],103 % of control
C=C(C)C(=O)OCC(O)C[N+](C)(C)C (stereo not given),T/C,"endpoint: mean survival time, dose: 50.0 mg/kg/injection, schedule: Q04DX003 (ip), vehicle: saline with Tween-80",96 % of control
same,T/C,[4],87 % of control
BrCCC1(CCBr)CCCCC1,T/C,"endpoint: median survival time, dose: 50.0 mg/kg/injection, schedule: Q01DX009 (ip), vehicle: other",104 % of control
same,T/C,"endpoint: median survival time, dose: 200.0 mg/kg/injection, schedule: Q01DX009 (ip), vehicle: other",101 % of control
same,T/C,"endpoint: median survival time, dose: 400.0 mg/kg/injection, schedule: Q01DX009 (ip), vehicle: other",101 % of control
same,T/C,"endpoint: median survival time, dose: 800.0 mg/kg/injection, schedule: Q01DX009 (ip), vehicle: other",101 % of control
COc1cc(O)c(Cc2ccccc2O)c(O)c1C(=O)CCc1ccccc1,T/C,"endpoint: mean survival time, dose: 1.25 mg/kg/injection, schedule: Q01DX009 (ip), vehicle: saline with Tween-80",105 % of control
same,T/C,"endpoint: mean survival time, dose: 2.5 mg/kg/injection, schedule: Q01DX009 (ip), vehicle: saline with Tween-80",100 % of control
same,T/C,"endpoint: mean survival time, dose: 5.0 mg/kg/injection, schedule: Q01DX009 (ip), vehicle: saline with Tween-80",97 % of control
same,T/C,"endpoint: mean survival time, dose: 10.0 mg/kg/injection, schedule: Q01DX009 (ip), vehicle: saline with Tween-80",105 % of control
same,T/C,"endpoint: mean survival time, dose: 20.0 mg/kg/injection, schedule: Q01DX009 (ip), vehicle: saline with Tween-80",100 % of control
NC(=O)C12CCCCC1CCC2 (stereo not given),T/C,[4],103 % of control
same,T/C,[5],96 % of control
same,T/C,[6],97 % of control
CCOC(=O)C1OC1(C)c1ccc(Cl)cc1 (stereo not given),T/C,"endpoint: mean survival time, dose: 100.0 mg/kg/injection, schedule: Q04DX003 (ip), vehicle: other",95 % of control
same,T/C,"endpoint: mean survival time, dose: 200.0 mg/kg/injection, schedule: Q04DX003 (ip), vehicle: other",110 % of control
same,T/C,"endpoint: mean survival time, dose: 400.0 mg/kg/injection, schedule: Q04DX003 (ip), vehicle: other",96 % of control
NCc1ccc(O)c(O)c1,T/C,"endpoint: mean survival time, dose: 50.0 mg/kg/injection, schedule: Q01DX009 (ip), vehicle: saline",115 % of control
same,T/C,[1],118 % of control and 124 % of control
same,T/C,[2],123 % of control and 124 % of control
same,T/C,[3],114 % of control
same,T/C,"endpoint: mean survival time, dose: 800.0 mg/kg/injection, schedule: Q01DX009 (ip), vehicle: saline",118 % of control
same,T/C,"endpoint: median survival time, dose: 28.13 mg/kg/injection, schedule: Q03HX024 (ip), vehicle: saline",111 % of control
same,T/C,"endpoint: median survival time, dose: 56.25 mg/kg/injection, schedule: Q03HX024 (ip), vehicle: saline",110 % of control
same,T/C,"endpoint: median survival time, dose: 300.0 mg/kg/injection, schedule: Q03HX024 (ip), vehicle: saline",110 % of control
Cc1c([N+](=O)[O-])cc(Cl)n[n+]1[O-],T/C,"endpoint: mean survival time, dose: 3.13 mg/kg/injection, schedule: Q04DX002 (ip), vehicle: saline with Tween-80",101 % of control
same,T/C,"endpoint: mean survival time, dose: 6.25 mg/kg/injection, schedule: Q04DX002 (ip), vehicle: saline with Tween-80",97 % of control
same,T/C,"endpoint: mean survival time, dose: 12.5 mg/kg/injection, schedule: Q04DX002 (ip), vehicle: saline with Tween-80",96 % of control
c1cc[c]([Ge]([O][Ge]([c]2ccccc2)([c]2ccccc2)[c]2ccccc2)([c]2ccccc2)[c]2ccccc2)cc1,T/C,"endpoint: mean survival time, dose: 50.0 mg/kg/injection, schedule: Q04DX003 (ip), vehicle: Klucel (hydroxypropylcellulose) (HPC)",96 % of control
same,T/C,[7],96 % of control
same,T/C,[8],96 % of control
CCc1c(CC(=O)O)c2cc(C)ccc2n1Cc1ccc(Cl)cc1,T/C,"endpoint: mean survival time, dose: 3.12 mg/kg/injection, schedule: Q01DX009 (ip), vehicle: Klucel (hydroxypropylcellulose) (HPC)",91 % of control
same,T/C,"endpoint: mean survival time, dose: 6.25 mg/kg/injection, schedule: Q01DX009 (ip), vehicle: Klucel (hydroxypropylcellulose) (HPC)",104 % of control
same,T/C,"endpoint: mean survival time, dose: 12.5 mg/kg/injection, schedule: Q01DX009 (ip), vehicle: Klucel (hydroxypropylcellulose) (HPC)",107 % of control
same,T/C,"endpoint: mean survival time, dose: 25.0 mg/kg/injection, schedule: Q01DX009 (ip), vehicle: Klucel (hydroxypropylcellulose) (HPC)",102 % of control
same,T/C,"endpoint: mean survival time, dose: 50.0 mg/kg/injection, schedule: Q01DX009 (ip), vehicle: Klucel (hydroxypropylcellulose) (HPC)",91 % of control
same,T/C,"endpoint: mean survival time, dose: 100.0 mg/kg/injection, schedule: Q01DX009 (ip), vehicle: Klucel (hydroxypropylcellulose) (HPC)",96 % of control
CC(=O)Nc1ccc(/C=N/NC(=O)COc2ccccc2)cc1,T/C,"endpoint: mean survival time, dose: 100.0 mg/kg/injection, schedule: Q01DX009 (ip), vehicle: saline with Tween-80",97 % of control
same,T/C,"endpoint: mean survival time, dose: 200.0 mg/kg/injection, schedule: Q01DX009 (ip), vehicle: saline with Tween-80",94 % of control
same,T/C,"endpoint: mean survival time, dose: 400.0 mg/kg/injection, schedule: Q01DX009 (ip), vehicle: saline with Tween-80",94 % of control
CC(=O)Oc1c(Br)c(-c2cc([N+](=O)[O-])c(C)c([N+](=O)[O-])c2C)c(OC(C)=O)c(Br)c1-c1cc([N+](=O)[O-])c(C)c([N+](=O)[O-])c1C,T/C,[4],93 % of control
same,T/C,[5],93 % of control
same,T/C,[6],87 % of control
O=C1C=C(N2CC2)C(=O)C(N2CC2)=C1N1CC1,T/C,"endpoint: median survival time, dose: 12.5 micrograms/kg/injection, schedule: Q01DX009 (ip), vehicle: saline",113 % of control
same,T/C,"endpoint: median survival time, dose: 25.0 micrograms/kg/injection, schedule: Q01DX009 (ip), vehicle: saline with Tween-80",96 % of control
same,T/C,"endpoint: median survival time, dose: 25.0 micrograms/kg/injection, schedule: Q01DX009 (ip), vehicle: saline",113 % of control
same,T/C,"endpoint: median survival time, dose: 50.0 micrograms/kg/injection, schedule: Q01DX009 (ip), vehicle: saline with Tween-80",118 % of control and 108 % of control
same,T/C,"endpoint: median survival time, dose: 100.0 micrograms/kg/injection, schedule: Q01DX009 (ip), vehicle: saline with Tween-80",156 % of control
same,T/C,"endpoint: median survival time, dose: 200.0 micrograms/kg/injection, schedule: Q01DX009 (ip), vehicle: saline with Tween-80",164 % of control and 190 % of control
same,T/C,"endpoint: median survival time, dose: 400.0 micrograms/kg/injection, schedule: Q01DX009 (ip), vehicle: saline with Tween-80",87 % of control and 91 % of control
CC1c2ccccc2CC(CCN(C)C)c2ccccc21 (stereo not given),T/C,"endpoint: median survival time, dose: 6.25 mg/kg/injection, schedule: Q01DX009 (ip), vehicle: saline with Tween-80",94 % of control
same,T/C,"endpoint: median survival time, dose: 12.5 mg/kg/injection, schedule: Q01DX009 (ip), vehicle: saline with Tween-80",113 % of control
same,T/C,"endpoint: median survival time, dose: 25.0 mg/kg/injection, schedule: Q01DX009 (ip), vehicle: saline with Tween-80",108 % of control
same,T/C,"endpoint: median survival time, dose: 50.0 mg/kg/injection, schedule: Q01DX009 (ip), vehicle: saline with Tween-80",112 % of control
Nc1nc2c(c(=O)[nH]1)N(C=O)C(CNc1ccc(C(=O)N[C@@H](CCC(=O)O)C(=O)O)cc1)CN2 (stereo not given in full),T/C,"endpoint: mean survival time, dose: 67.0 mg/kg/injection, schedule: Q01DX009 (sc), vehicle: other",105 % of control
same,T/C,"endpoint: mean survival time, dose: 100.0 mg/kg/injection, schedule: Q01DX009 (sc), vehicle: other",101 % of control
same,T/C,"endpoint: mean survival time, dose: 150.0 mg/kg/injection, schedule: Q01DX009 (sc), vehicle: other",101 % of control
same,T/C,"endpoint: mean survival time, dose: 225.0 mg/kg/injection, schedule: Q01DX009 (sc), vehicle: other",108 % of control
same,T/C,"endpoint: mean survival time, dose: 338.0 mg/kg/injection, schedule: Q01DX009 (sc), vehicle: other",103 % of control
CC(NC(=O)c1cccnc1)C(=O)O (stereo not given),T/C,"endpoint: median survival time, dose: 25.0 mg/kg/injection, schedule: Q04DX003 (ip), vehicle: saline",105 % of control
same,T/C,"endpoint: median survival time, dose: 50.0 mg/kg/injection, schedule: Q04DX003 (ip), vehicle: saline",115 % of control
same,T/C,"endpoint: median survival time, dose: 100.0 mg/kg/injection, schedule: Q04DX003 (ip), vehicle: saline",94 % of control
same,T/C,"endpoint: median survival time, dose: 200.0 mg/kg/injection, schedule: Q04DX003 (ip), vehicle: saline",94 % of control
O=C(O)C[Se]CC(=O)O,T/C,"endpoint: mean survival time, dose: 100.0 mg/kg/injection, schedule: Q01DX001 (ip), vehicle: saline",109 % of control
same,T/C,"endpoint: mean survival time, dose: 200.0 mg/kg/injection, schedule: Q01DX001 (ip), vehicle: saline",103 % of control
